By IC50 is commonly meant the midpoint of a concentration-inhibition curve. As a reminder, the tissue uptake is the percentage of the injected dose found per gram of tissue.

In data set [1] the target is T1, melanocortin-1 receptor (Mus musculus, UniProt Q01727).
T1 construct: endogenous in cells; host or cells: B16/F1 cells
Conditions: comparison value for the optimal peptide construct for Cu-64; cited from earlier work.

A short description of data set [2]: Biodistribution in B16/F1 flank tumor bearing C57 mice. The settings on record: both sexes, C57, mouse, tumor (B16/F1 flank tumor), iv, 0.27 mCi, total radioactivity; 40 min post injection; tail vein. It is filed as in vivo. The protocol: (§1) Pilot Animal Studies using ^62Cu labeled Peptide: Biodistribution and PET studies of radiolabeled ^62Cu-NOTA-2-GGG-Arg11 were performed in B16/F1 flank tumor bearing C57 mice utilizing the newly designed nanogenerator with the 5 μg lyophilized peptide kits. Fourteen male and female, 6-8 week old mice were injected with B16/F1 cells (1,000,000/mouse) in the flanks or shoulders while anesthetized to induce solid tumors. B16/F1 solid tumors appeared in 14 days post inoculation. Radiolabeled peptides were injected through the tail vein at an average of 0.27 mCi per dose administration for biodistribution studies and an average of 0.7 mCi for imaging, achieving specific activities of 111.2-140.4 Ci/μmol (mean=122.1 Ci/μmol), and an average of 94.0% radiolabeling yield without a purification step after synthesis. Animals in the biodistribution studies were sacrificed by cervical dislocation followed by pneumothorax at 10, 20, and 40 min post administration, major organs removed, weighed, and radioactivity quantitated in a windowed gamma counter.
(§2) Uptake was measured for the tumor, blood, heart, lung, liver, small intestine, intestine, kidneys, muscle, carcass and paper, and skin. Tumor uptake was rapid, reaching 4.65±0.48 ID/g and 9.43±2.69% ID/g at 20 and 40 min post injection, respectively.

Data set [3] relates to B16/F1 flank tumor. The description is as above. It is filed as in vivo. Conditions: for Tumor uptake: tail vein. As to the method:
as §1, §2

Data set [4] relates to melanoma cells. As to the kind of experiment: In vitro cell binding of radiolabeled peptide. Format: cell-based. The settings on record: 1 million cells per well, 320,000 cpm; maximum at 10 min, constant for 50 min. As to the method: Tissue culture wells containing 1 million cells each were incubated with 320,000 cpm of ^62Cu-NOTA-2-GGG-Arg11 for various times between 5 min and 50 min then washed and counted. […] In vitro cell binding of 10% for the ^62Cu-NOTA-2-GGG-Arg11 peptide is similar to then in vitro cell uptake percentages for HPLC purified.

Data set [5] deals with B16/F1 flank tumor. The experiment in a line: PET imaging study in tumor bearing mice (microPET-Focus). Format: in vivo. Conditions: static imaging for 20 min starting 10 min post administration. The protocol: as §1, with “Radiolabeled peptides were injected through the tail vein at an average of 0.27 mCi per dose administration for biodistribution studies and an average of 0.7 mCi for imaging, achieving specific activities of 111.2-140.4 Ci/μmol (mean=122.1 Ci/μmol), and an average of 94.0% radiolabeling yield without a purification step after synthesis.” left out
A preliminary PET imaging study was also performed, in which two anesthetized animals were used for PET imaging studies starting at 10 min post administration of the radiolabeled peptide and statically imaged with a microPET-Focus scanner (Siemens Preclinical Solutions, Knoxville, Tenn.) for 20 min (see FIG. 9). […] Background levels of radioactivity in the blood and major organs and tissues were low, except for the kidneys.

Non-standard residues stand in square brackets, D forms with d. Residues, ends and D or L forms follow the SMILES beside them. *: point of attachment. NOTA = O=C(O)CN1CCN(CC(=O)O)CCN(CC(=O)*)CC1

T1 sequence (Q01727 whole entry): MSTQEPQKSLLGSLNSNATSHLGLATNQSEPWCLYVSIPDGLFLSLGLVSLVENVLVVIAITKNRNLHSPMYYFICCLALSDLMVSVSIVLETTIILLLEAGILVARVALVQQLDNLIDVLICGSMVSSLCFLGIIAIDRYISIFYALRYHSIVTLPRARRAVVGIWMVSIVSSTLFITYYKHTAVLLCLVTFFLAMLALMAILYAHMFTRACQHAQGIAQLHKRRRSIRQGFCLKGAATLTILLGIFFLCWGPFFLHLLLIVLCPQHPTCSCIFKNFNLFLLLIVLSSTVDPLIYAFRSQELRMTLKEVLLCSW

Consider “CBTE2A-ReCCMSH [CBTE2A conjugated ReCCMSH peptide, the optimal peptide construct for Cu-64]”, for which, in data set [1], the IC50 was 5.4 nM.

On to `CC(C)[C@H](NC(=O)[C@@H]1CCCN1C(=O)[C@H](CCCNC(=N)N)NC(=O)[C@H](CS)NC(=O)[C@H](Cc1c[nH]c2ccccc12)NC(=O)[C@H](CCCNC(=N)N)NC(=O)[C@@H](Cc1ccccc1)NC(=O)[C@H](Cc1c[nH]cn1)NC(=O)[C@H](CCC(=O)O)NC(=O)[C@H](CS)NC(=O)[C@H](CS)NC(=O)CNC(=O)CNC(=O)CNC(=O)CN1CCN(CC(=O)O)CCN(CC(=O)O)CC1)C(N)=O` [^62Cu-NOTA-2-GGG-Arg11, metal not drawn] ({NOTA}-GGGCCEH[dF]RWCRPV-NH2), for which the tissue uptake at 40 min in data set [2] came to 9.43 ± 2.69 %ID/g. Further, the “Tumor uptake in the blocked mice relative to radiolabeled peptide alone” value in data set [3] (20 min post injection, 20 μg non-labeled NDP-MSH co-injected) is 0.55 % of tumor uptake in the mice receiving the radiolabeled peptide alone. The Tumor uptake amounted to 4.65 ± 0.48 %ID/g in data set [3] (20 min post injection) and 9.43±2.69 % ID/g in data set [3] (40 min post injection). The “Clearance and route of excretion” value in data set [3] (biodistribution at 10, 20 and 40 min) is “clearance from the blood and non-target tissues except for the kidneys, which was the primary route of excretion”. Moreover, the “Maximum cell uptake of the radiolabeled peptide” value in data set [4] was 10%. Moreover, in data set [5], the PET tumor visualization result is “tumor is clearly visualized”.

The record behind these values is US20110280770A1, “Nanogenerator” (priority 2010, published 2011).
